Data on four compounds can be found in patent US11999758B2, “Inhibitors of the YAP/TAZ-TEAD interaction and their use in the treatment of cancer” (INVENTIVA, priority 2018, dated 2024).

One data set has as its target T1, YAP-TEAD interaction (Homo sapiens, UniProt P28347).
T1 construct: expressed in transfected cells; host or cells: HEK293 GripTite 293 MSR (Invitrogen R795-07)
Briefly: Cell-based TEAD-GAL4 transactivation assay (luciferase reporter). Conditions: HEK293 cells transfected with TEAD1-Gal4, YAP mutant (S127A, S397A) and luciferase reporter, compounds 0.1 μM to 30 μM; for Emax: HEK293, 24 h, read-out: TEAD-GAL4 Transactivation activity Max Act; for IC50: 24 h. The gist of the method:
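HEK293 cells transiently transfected with Gal4-DBD–full-length human TEAD1, full-length YAP S127A/S397A (YAP/TEAD ratio 10) and a 5×GAL4-RE TK-luciferase reporter. Six hours later, compounds added semi-log from 0.1 to 30 μM (DMSO 0.5% control) for 24 h. Luciferase read; IC50 from 3-parameter fit.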
Background: A reporter such as luciferase makes a cellular process visible.

Data set [1] deals with NCI-H2052 mesothelioma cell. The data set can be described thus: Inhibition of malignant mesothelioma tumor cell growth (EdU proliferation). The format is cell-based. Particulars: NF2 mutated cell line; FIG. 1 (x). As to the method:
(§1) The tumor cell growth inhibitory activity of the YAP-TEAD interaction inhibitors was evaluated in NCI-H-2052 mesothelioma cell line harboring a NF2 mutation. This cell line was selected based on its mutational status and the ability of a siRNA directed against YAP, TAZ or TEAD1-4 to inhibit cell proliferation. The nuclear localization of YAP at confluence was also taken into account. Based on these observations we were able to classify several “YAP dependent cells” where YAP is clearly nuclear and in which a cell growth inhibition is observed by using siRNA (NCI-H-2052, SKOV-3, ACHN, A549) and the “YAP independent cells” where YAP is preferentially located in the cytoplasm and in which no inhibition of cell growth is observed by using a siRNA (SW620, Met-5a). […] After one day growth in the starvation medium, cells were incubated with compounds. The starting concentration was 30 μM and serial dilutions in DMSO and medium were performed until 0.1 μM to achieve a final DMSO concentration of 0.5%. The cells were then allowed to grow for 3 days, and then, EdU (Invitrogen, Molecular Probe) was added in each well at a final concentration of 10 μM and the cells were returned to the incubator for an additional 24 h. The starvation medium was removed and 100 μl of PFA 4% containing Hoechst dye was adding in each well to fix the cells. Plates were then incubated at rt for 15 min, washed twice with PBS and the cells were permeabilized by adding 100 μl per well of triton-100 containing 0.3% BSA. After 20 min, cells were washed with PBS and EdU detection was performed according to the instructions of the manufacturer. Image acquisition was performed using the ImageXpress Micro and analyzed using the MetaXpress software (Molecular Device). Results were expressed as a percent of inhibition (%) of the cell proliferation values obtained with 0.5% DMSO treatment alone. The cellular response was determined by fitting the concentration response curves using a 3 parameter curve fit equation and determining the concentration that inhibited cell growth between 50% and 100%.

A further data set concerns Met5A cell line. The data set can be described thus: Cell proliferation in YAP-independent cell line (EdU). The format is cell-based. Particulars: FIG. 1 (▪). The protocol:
as §1

T1 sequence (P28347 whole entry): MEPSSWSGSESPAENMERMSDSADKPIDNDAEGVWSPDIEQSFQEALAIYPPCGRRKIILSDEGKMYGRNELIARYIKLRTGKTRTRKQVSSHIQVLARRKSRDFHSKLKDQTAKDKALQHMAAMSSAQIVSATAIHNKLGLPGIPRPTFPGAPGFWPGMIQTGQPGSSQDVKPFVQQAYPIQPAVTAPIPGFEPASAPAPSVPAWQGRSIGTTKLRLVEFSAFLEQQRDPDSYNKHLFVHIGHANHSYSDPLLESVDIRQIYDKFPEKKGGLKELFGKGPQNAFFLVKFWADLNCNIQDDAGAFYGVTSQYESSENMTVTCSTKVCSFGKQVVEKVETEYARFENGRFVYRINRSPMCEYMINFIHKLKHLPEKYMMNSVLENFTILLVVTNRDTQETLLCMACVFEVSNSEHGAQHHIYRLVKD

Broadly, the IC50 is the concentration at which inhibition is half-maximal. High values mean weaker potency, low ones greater potency. Broadly, the melting point is the temperature, or range, at which the solid turns liquid. In turn, `CSc1nc2ncnc(N(C)/N=C/c3ccc4c(c3)COB4O)c2s1` [Ex75, N-[(E)-(1-hydroxy-3H-2,1-benzoxaborol-5-yl)methyleneamino]-N-methyl-2-methylsulfanyl-thiazolo[4,5-d]pyrimidin-7-amine] had a melting point of 262 to 286 °C. Also, at YAP-TEAD interaction, the Emax was determined as 94% and inhibition was half-maximal at 900 nM (IC50). Besides, the “NCI-H2052 mesothelioma cell proliferation” value in data set [1] is recorded as “inhibited”. The “effect in the Met5A cell line” value in the data set on Met5A cell line is “without showing any effect”.

For the compound `COc1cc(/C=N/N(CC(C)C)C2=NS(=O)(=O)c3ccccc32)ccc1B(O)O` [Ex 1, [4-[(E)-[(1,1-dioxo-1,2-benzothiazol-3-yl)-isobutyl-hydrazono]methyl]-2-methoxy-phenyl]boronic acid], on YAP-TEAD interaction, the Emax was determined as 86% and half-maximal inhibition (IC50) required 7310 nM. In addition, the “NCI-H2052 mesothelioma cell proliferation” value in data set [1] is “inhibited”. The “effect in the Met5A cell line” value in the data set with Met5A cell line is on record as “without showing any effect”.

On to `Cc1csc2c(N3N=C(c4ccc5c(c4)COB5O)CCC3C)ncnc12` (centres unmarked) [Ex118, 4-[6-(1-hydroxy-3H-2,1-benzoxaborol-5-yi)-3-methyl-4,5-dihydro-3H-pyridazin-2-yl]-7-methyl-thieno[3,2-d]pyrimidine], for which, at YAP-TEAD interaction, the Emax is 86% and the IC50 stood at 270 nM. Besides, the “NCI-H2052 mesothelioma cell proliferation” value in data set [1] was “inhibited”. Besides, in the data set with Met5A cell line, the “effect in the Met5A cell line” value was “without showing any effect”.

As for `CCN(/N=C/c1ccc2c(c1)COB2O)c1ncnc2c(C)csc12` [Ex 42, N-ethyl-N-[(E)-(1-hydroxy-3H-2,1-benzoxaborol-5-yl)methyleneamino]-7-methyl-thieno[3,2-d]pyrimidin-4-amine], at YAP-TEAD interaction, the Emax was found to be 81% and the half-inhibitory concentration (IC50) was determined as 260 nM. In addition, in data set [1], the “NCI-H2052 mesothelioma cell proliferation” value is listed as “inhibited”. In addition, the “effect in the Met5A cell line” value in the data set with Met5A cell line is on record as “without showing any effect”.
